Laboratory results from publication PMC3664202 (Bioorganic & medicinal chemistry letters, 2012).
pIC50: −log10 of the molar value.

Key:
[1] = system: psoriasis and other inflammatory skin conditions; settings: small clinical trial; cited from earlier work
Kv1.3 channels = Kv1.3 channels (Mus musculus, UniProt P16390); experiment: Kv1.3 blockade, manual whole-cell patch-clamp; format: cell-based; settings: for decrease in Kv1.3 blocking activity/potency relative to diphenoxylate: fold less potent than diphenoxylate
Kv1.3 channels, sequence (P16390 whole entry): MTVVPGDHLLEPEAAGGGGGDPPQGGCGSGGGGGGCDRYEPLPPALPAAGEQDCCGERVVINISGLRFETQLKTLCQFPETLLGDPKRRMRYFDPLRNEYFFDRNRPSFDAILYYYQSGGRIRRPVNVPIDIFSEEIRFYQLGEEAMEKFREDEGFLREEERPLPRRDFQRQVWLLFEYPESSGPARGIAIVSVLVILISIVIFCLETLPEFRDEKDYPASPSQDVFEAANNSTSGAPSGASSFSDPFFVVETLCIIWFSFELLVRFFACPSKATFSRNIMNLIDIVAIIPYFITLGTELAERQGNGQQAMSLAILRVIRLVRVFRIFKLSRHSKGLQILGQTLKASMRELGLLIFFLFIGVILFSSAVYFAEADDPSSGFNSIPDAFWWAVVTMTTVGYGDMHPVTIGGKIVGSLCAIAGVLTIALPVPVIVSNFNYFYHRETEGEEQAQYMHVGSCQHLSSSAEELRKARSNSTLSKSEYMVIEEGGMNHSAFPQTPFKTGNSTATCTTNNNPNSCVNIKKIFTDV

[2] = system: delayed type hypersensitivity (DTH) and allergic contact dermatitis (ACD); settings: Lewis rats; dosed orally, by i.p. injection or topically; cited from earlier work
[3] = cited from earlier work
[4] = system: adoptive transfer and chronic relapsing experimental autoimmune encephalomyelitis (EAE); settings: rats; cited from earlier work

**Q.** Which “clinical effect on psoriasis and other inflammatory skin conditions” value [1] does the source give for `CCOC(=O)C1(c2ccccc2)CCN(CCC(C#N)(c2ccccc2)c2ccccc2)CC1` [Compound 1, Diphenoxylate] here?
**A.** Its value is “successfully treat psoriasis and other inflammatory skin conditions”.

**Q.** Which “decrease in Kv1.3 blocking activity/potency relative to diphenoxylate” value (Kv1.3 channels) does the source give for `CCOC(=O)C1CCN(CCC(C#N)(c2ccccc2)c2ccccc2)CC1` [Compound 6, Ethyl 1-(3-cyano-3,3-diphenylpropyl)piperidine-4-carboxylate] here?
**A.** Its value is ~ 50 fold.

**Q.** For `CCOC(=O)C1(c2ccccc2)CCN(CCC(c2ccccc2)c2ccccc2)CC1` [Compound 7, Ethyl 1-(3,3-diphenylpropyl)-4-phenylpiperidine-4-carboxylate], which “more active than diphenoxylate (Kv1.3 blockade)” value (Kv1.3 channels; fold more active than diphenoxylate) is on record?
**A.** Its value is 6 fold.

**Q.** With `N#CC(CCN1CCCCC1)(c1ccccc1)c1ccccc1` [Compound 8, 2,2-diphenyl-4-(piperidin-1-yl)butanenitrile] as the compound, how does the “decrease in Kv1.3 blocking activity/potency relative to diphenoxylate” value (Kv1.3 channels) read?
**A.** The value was 4 fold.

**Q.** With `N#CC(CCN1CCCC(O)C1)(c1ccccc1)c1ccccc1` (stereo not shown) [Compound 15, 4-(3-hydroxypiperidin-1-yl)-2,2-diphenylbutanenitrile] as the compound, how does the pIC50 (Kv1.3 channels) read?
**A.** Its pIC50 is < 4.00.

**Q.** Which results are given for `OC1CCN(CCCc2ccccc2)CC1` [Compound 17, 1-(3-phenylpropyl)piperidin-4-ol]?
**A.** pIC50 (Kv1.3 channels): < 4.00; Kv1.3 blocking activity (in words) (Kv1.3 channels; removal of a cyano group plus a phenyl ring from 14): no activity

**Q.** For `O=c1ccc2c(OCCCCOc3ccccc3)c3ccoc3cc2o1` [PAP-1], which “effect on DTH and ACD” value [2] is on record?
**A.** Its value is “suppress delayed type hypersensitivity (DTH) and allergic contact dermatitis (ACD)”.

**Q.** And the oral availability [3]?
**A.** Its oral availability is 25%.

**Q.** Which “effect on EAE” value [4] does the source give for ShK here?
**A.** The value was “able to treat both adoptive transfer and chronic relapsing experimental autoimmune encephalomyelitis (EAE)”.
